In US4873249A, “Pharmaceutical composition” (EGIS Gyogyszergyar, priority 1986, dated 1989):
Where two headings read alike, the source gives them in different places.

What was measured:
in vivo [1] = details: mouse, po
Protocol: The observation period after treatment lasted for 14 days.
Statistical evaluation was carried out as described by Litchfield-Wilcoxon's method.

in vivo [2] = type: in vivo; details: mouse, in vivo, po; mice, LD50/writhing ID50; read-out: TI (therapeutic index)
Protocol: (§1) Between the 5th and 10th minute after the administration of acetic acid total number of the typical writhing reactions was counted, and expressed as percentage of the control. The experiments were performed in groups of at least 12 mice; measurements were done 60 min. after oral application of the test compounds.

[3] = tested on: acetic-acid writhing reactions in mice; assay: animal or person; type: in vivo; details: Mus musculus, po, 1 h, read-out: Writhing test ID50
Protocol: as §1

[4] = tested on: carrageenin-induced oedema in rats; assay: Carrageenin-induced oedema test in rats; type: in vivo; details: 3 h after carrageenin
Protocol: Inhibitory activity in carrageenin-induced oedema test was assessed in rats using the technique of Winter at al. (1962). Carageenin (0.1 ml of 1.0% solution) was injected into the plantar surface of the hind paw of rats weighing 130-160 g. Rats were fasted for 12 hours and received drinking water ad libitum. One hour before treatment with the test compound animals were hydrated orally with 30 ml/kg of tap water. The test compounds or the vehicle were administered p.o. in a volume of 10 ml/kg, then two hours later carrageenin was applied. The paw volume was determined in a plethysmometer prior to and 3 hours after administration of the irritant.

[5] = tested on: brewer's yeast induced fever in rats; assay: Antipyretic activity in rats (brewer's yeast fever); type: in vivo, Wistar rats
Protocol: The experiments were performed in groups of 10 Wistar rats of both sexes weighing 160-200 g. Fever was induced by 20% brewer's yeast suspended in 0.9% saline solution, applied subcutaneously in a volume of 2 ml/rat distributed at various sites of the back. After 18 hours the test compound or the vehicle was administered in a volume of 10 ml/kg p.o. During this period the rats were fasted but received drinking water ad libitum. The rectal temperature of the animals was measured with a Thermotest thermometer 2 days before injection of the fever inducer, then before the application of the test compound and after treatment in every 60th min. Animals with increase in body temperature less than 0.8° C. were excluded. The results were evaluated according to the statistical method of Duncan.

[6] = tested on: acetic acid writhing reactions in rats; assay: Writhing test in rats (acetic acid); details: Rattus norvegicus, po, 1 h, read-out: Writhing test ID50
Protocol: (§2) Five minutes after treatment with acetic acid, total number of characteristic writhing reactions was counted for 10 minutes and expressed as percentage of the control group.

[7] = tested on: gastric secretion in rats; assay: Effect on gastric secretion in rats (Shay, pylorus ligation); type: in vivo, Wistar rats; details: for Gastric juice / Free acid content / Total acid content: per 100 g body weight; for Free acid content / Total acid content: titration with 0.1 N NaOH
Protocol: The experiments were carried out following the surgical method of Shay et al. (1946). Fasted Wistar rats weighing 200-250 g were used. During a 48 hours, starving period rats received drinking water ad libitum. The experimental groups consisted of 4 males and 4 females.
On the day of experiment the pylorus of rats was ligated under ether anaesthesia. […] The control groups were treated simultaneously with identical volumes of vehicle in identical route of administration.
Four hours after operation rats were killed with ether, their stomach was removed after cardia ligature, the stomach contents were separated and after centrifugation the volume of the gastric juice was measured. The free acid and total acid content were assayed by titration with 0.1 N NaOH.
The results were individually transformed for 100 g body weight and statistically evaluated by Wilcoxon's method.

[8] = tested on: adjuvant arthritis in rats; assay: Adjuvant arthritis in rats; type: in vivo, Long Evans rats; details: for Paw swelling, % Right: injected right hindpaw, day 10 (primary response); for % inhibition Left: left hindpaw, secondary response; for % inhibition Right: right hindpaw, primary response; for Paw swelling, % Left: uninjected left hindpaw, day 15 (secondary response)
[9] = tested on: PHA stimulated granulocytes; assay: Chemiluminescence of PHA stimulated granulocytes; type: cell-based, human (healthy volunteers); details: Homo sapiens, read-out: IC50, chemiluminescence of PHA stimulated granulocytes
Protocol: (§3) Heparinized blood (10 IU/ml) was taken from healthy volunteers. The blood diluted with equal volume of dextran, the white blood cells were separated by sedimentation. The granulocytes were separated by Uromio gradient. […] The cell suspension was put in dark box for 15 min. Luminol was dissolved in concentrated NH4 OH and diluted in the following solution:
(§4) 50 ml Tris-Parker medium (containing 1.2 g Tris, pH=7.4)
(§5) 4 ml glucose 40% w/v in water
(§6) The Luminol solution (500 μl) was measured in plastic vials and put in dark (37° C.). The reaction was started by addition of the cells and stimulating agent (Phytohaemaglutinin-PHA 10 μg/ml).
(§7) The vials were continuously and gently shaken and the PHA stimulation was measured in every 2.5 min. for 15 min. in a Beckmann LS-100 spectrometer (coincidence switched off). The percentage of the counts measured was calculated in comparison with the solvent treated control cells. At least 5 concentrations of each compound were investigated in at least 3 parallels.

[10] = Chemiluminescence induced by H2O2 in cell free medium
[11] = Writhing test in rats (acetic acid); details: rat, in vivo, po
Protocol: as §2

gastric mucosa of rats = assay: Measurement of ulcerogenic activity; type: in vivo
Wistar rats = details: from Barron et al. 1968, 20160 min; cited from earlier work
mononuclear cells = assay: Chemiluminescence of PHA stimulated mononuclear cells; type: cell-based, human (healthy volunteers)
Protocol: as §3, §4, §5, §6, §7

[12] = 200 mg/kg p.o., 1 hour following treatment
[13] = 200 mg/kg p.o., 3 hours following treatment
[14] = 200 mg/kg p.o., 5 hours following treatment

CC(=O)Oc1ccccc1C(=O)O [Acetylsalicylic acid]
LD50 at 336 h (in vivo [1]): 1350 mg/kg
selectivity ratio (in vivo [2]): 5.2
ED50 [3]: 261 mg/kg
% inhibition of carrageenin-induced oedema ([4]; 100 mg/kg p.o.): 29.5%
Decrease in body temperature [5, 12]: 0.7 °C
Decrease in body temperature [5, 13]: 1.0 °C
Decrease in body temperature [5, 14]: 1.0 °C

Cc1c(N(C)C)c(=O)n(-c2ccccc2)n1C [Amidazophen, 1-phenyl-2,3-dimethyl-4-dimethylamino-pyrazolone-5, reference compound]
Decrease in body temperature [5, 12]: 2.7 °C
Decrease in body temperature [5, 13]: 2.3 °C
Decrease in body temperature [5, 14]: 1.7 °C

COc1ccc(Cc2cnc(N)nc2N)cc1OC [Compound A, 2,4-diamino-5-(3,4-dimethoxybenzyl)-pyrimidine]
ED50 [3]: 141 mg/kg
ED50 [6]: 36 mg/kg
% inhibition of carrageenin-induced oedema ([4]; 125 mg/kg p.o.): 42.0%
Gastric juice ([7]; 250 mg/kg orally): 3.01 mL
Free acid content ([7]; 250 mg/kg orally): 2.17 mL
Total acid content ([7]; 250 mg/kg orally): 4.33 mL
Gastric juice ([7]; 500 mg/kg orally): 2.93 mL
Free acid content ([7]; 500 mg/kg orally): 2.18 mL
Total acid content ([7]; 500 mg/kg orally): 4.40 mL
Gastric juice ([7]; 1000 mg/kg orally): 2.23 mL
Free acid content ([7]; 1000 mg/kg orally): 1.24 mL
Total acid content ([7]; 1000 mg/kg orally): 3.18 mL
inhibition at 250 mg/kg ([7]; Rattus norvegicus, 250 mg/kg, + = increase, - = decrease, read-out: % inhibition compared to the control, Gastric juice): 17.3%
Percent change from control (+ = increase, - = decrease) at 250 mg/kg ([7]; Rattus norvegicus, 250 mg/kg, read-out: % inhibition compared to the control, Free acid content): -23%
inhibition at 250 mg/kg ([7]; Rattus norvegicus, 250 mg/kg, read-out: % inhibition compared to the control, Total acid content): 11.8%
inhibition at 500 mg/kg ([7]; Rattus norvegicus, 500 mg/kg, + = increase, - = decrease, read-out: % inhibition compared to the control, Gastric juice): 15.2%
Percent change from control (+ = increase, - = decrease) at 500 mg/kg ([7]; Rattus norvegicus, 500 mg/kg, read-out: % inhibition compared to the control, Free acid content): -19.1%
inhibition at 500 mg/kg ([7]; Rattus norvegicus, 500 mg/kg, read-out: % inhibition compared to the control, Total acid content): 16.5%
inhibition at 1000 mg/kg ([7]; Rattus norvegicus, 1000 mg/kg, + = increase, - = decrease, read-out: % inhibition compared to the control, Gastric juice): -14%
Percent change from control (+ = increase, - = decrease) at 1000 mg/kg ([7]; Rattus norvegicus, 1000 mg/kg, p < 0.05, read-out: % inhibition compared to the control, Free acid content): -58.1%
inhibition at 1000 mg/kg ([7]; Rattus norvegicus, 1000 mg/kg, read-out: % inhibition compared to the control, Total acid content): -20.1%
Effect on gastric secretion (in words) ([7]; doses 250-1000 mg/kg): did not change the gastric secretion except in very high doses
Paw swelling, % Right ([8]; 100 mg/kg p.o. once daily): 56.9%
% inhibition Left ([8]; 100 mg/kg p.o. once daily): -47.1%
% inhibition Right ([8]; 100 mg/kg p.o. once daily): -51.4%
Paw swelling, % Left ([8]; 100 mg/kg p.o. once daily): 38.5%
Antipyretic activity (in words) [5]: significant antipyretic activity
Decrease in body temperature ([5]; 100 mg/kg p.o., 1 hour following treatment): 1.5 °C
Decrease in body temperature ([5]; 100 mg/kg p.o., 3 hours following treatment): 2.0 °C
Decrease in body temperature ([5]; 100 mg/kg p.o., 5 hours following treatment): 1.7 °C
Decrease in body temperature [5, 12]: 1.5 °C
Decrease in body temperature [5, 13]: 2.4 °C
Decrease in body temperature [5, 14]: 1.6 °C
IC50 [9]: 0.1 µM
Influence on chemiluminescence induced by H2O2 [10]: did not influence

COc1ccc2c(c1)c(CC(=O)O)c(C)n2C(=O)c1ccc(Cl)cc1 [Indomethacin, 1-(p-chloro-benzoyl)-5-methoxy-2-methyl-1H-indole-3-acetic acid]
selectivity ratio [11]: 5.4
ED50 [6]: 4.7 mg/kg
% inhibition of carrageenin-induced oedema ([4]; 1 mg/kg p.o.): 40.3%
Ulcus-index (gastric mucosa of rats; 5 mg/kg orally 6 and 16 h before decapitation): 0.2
Ulcus-index (gastric mucosa of rats; 10 mg/kg orally 6 and 16 h before decapitation): 1.2
Ulcus-index (gastric mucosa of rats; 20 mg/kg orally 6 and 16 h before decapitation): 3.0
Effect on ulcus-index (in words) (gastric mucosa of rats; oral, over the doses of Table 4): increases does dependently the ulcus-index
IC50 [9]: > 100 µM
LD50 (Wistar rats): 25.5 mg/kg

CC(=O)Nc1ccc(O)cc1 [Paracetamol, 4-hydroxy-acetanilide]
ED50 [3]: 180 mg/kg

CCCCC1C(=O)N(c2ccccc2)N(c2ccccc2)C1=O [Phenylbutazone, 3,5-dioxo-1,2-diphenyl-4-(n-butyl)-pyrazolidine]
ED50 [3]: 100 to 200 mg/kg
ED50 [6]: 19.7 mg/kg
% inhibition of carrageenin-induced oedema ([4]; 25 mg/kg p.o.): 56.6%
Paw swelling, % Right ([8]; 30 mg/kg p.o. once daily): 94.6%
% inhibition Left ([8]; 30 mg/kg p.o. once daily): -49.6%
% inhibition Right ([8]; 30 mg/kg p.o. once daily): -19.2%
Paw swelling, % Left ([8]; 30 mg/kg p.o. once daily): 36.7%
IC50 ([9]; PHA 10 μg/ml, Luminol 32 μM): 100 µM
Activity on chemiluminescence in mononuclear cells (mononuclear cells): inactive

CN1C(C(=O)Nc2ccccn2)=C(O)c2ccccc2S1(=O)=O [Piroxicam, 4-hydroxy-2-methyl-N-2-pyridyl-2H-1,2-benzothiazine-3-carboxamide-1,1-dioxide]
IC50 ([9]; PHA 10 μg/ml, Luminol 32 μM): 100 µM
Activity on chemiluminescence in mononuclear cells (mononuclear cells): inactive
